In patent US10308667B2, “Oxadiazolopyridine derivatives for use as ghrelin O-acyl transferase (GOAT) inhibitors” (Boehringer Ingelheim International GmbH, priority 2016, dated 2019) one finds IC50 data, which are given here for 14 compounds.

pIC50: −log10 of the molar value.

Sequence of human GOAT (Q96T53 whole entry): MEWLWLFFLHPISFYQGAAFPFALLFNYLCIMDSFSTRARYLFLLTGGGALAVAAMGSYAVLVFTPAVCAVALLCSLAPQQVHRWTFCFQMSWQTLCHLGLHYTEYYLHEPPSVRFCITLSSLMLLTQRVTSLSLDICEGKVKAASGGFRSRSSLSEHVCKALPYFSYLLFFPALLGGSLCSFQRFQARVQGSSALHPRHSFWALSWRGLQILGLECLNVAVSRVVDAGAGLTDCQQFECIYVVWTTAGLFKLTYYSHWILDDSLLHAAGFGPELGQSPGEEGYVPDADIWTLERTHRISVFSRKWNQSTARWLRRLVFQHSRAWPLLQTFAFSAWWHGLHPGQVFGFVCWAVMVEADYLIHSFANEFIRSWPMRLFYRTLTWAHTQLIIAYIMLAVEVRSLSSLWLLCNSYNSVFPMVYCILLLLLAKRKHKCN

For the experiment, the target named is human GOAT (Homo sapiens (Human), UniProt Q96T53). Briefly: Determination of hGOAT Activity in HEK293 Cells after Incubation with Test Compound. In kind it is cell-based. Conditions: HEK293 cells stably transfected with preproghrelin and human GOAT; octanoate-BSA 100 μM; acyl-ghrelin in medium by ELISA after 5 hours. In a few lines:
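HEK293 cells stably expressing preproghrelin and human GOAT were given serum-free medium with 100 μM octanoate-BSA plus compound (0.3% DMSO) for 5 h. Acyl-ghrelin in the medium was quantified by ELISA (A405, standard curve) as % of vehicle. IC50 was fitted from 8 concentrations.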
(In general: ELISA stands for enzyme-linked immunosorbent assay.)
In general, pIC50 refers to −log10 of the IC50, conventionally taken in molar units. On to `Cc1nc2nonc2c(N)c1Cc1ccc(C#N)c(OCC(F)F)n1` [Example 109, 6-(7-Amino-5-methyl-[1,2,5]oxadiazolo[3,4-b]pyridin-6-ylmethyl)-2-(2,2-difluoro-ethoxy)-nicotinonitrile], for which the pIC50 is 10.03.

Compound `Cc1nc2nonc2c(N)c1Cc1ccc(C#N)c(OCCC(F)(F)F)n1` [Example 110, 6-(7-Amino-5-methyl-[1,2,5]oxadiazolo[3,4-b]pyridin-6-ylmethyl)-2-(3,3,3-trifluoro-propoxy)-nicotinonitrile] had a pIC50 of 9.55.

For `Cc1nc2nonc2c(N)c1Cc1ccc(C#N)c(OCC2(C)COC2)n1` [Example 111, 6-(7-Amino-5-methyl-[1,2,5]oxadiazolo[3,4-b]pyridin-6-ylmethyl)-2-(3-methyl-oxetan-3-ylmethoxy)-nicotinonitrile], the pIC50 was 10.00. The compound `Cc1nc2nonc2c(N)c1Cc1ccc(C#N)c(OCC2CC2(F)F)n1` (centres unmarked) [Example 112, 6-(7-Amino-5-methyl-[1,2,5]oxadiazolo[3,4-b]pyridin-6-ylmethyl)-2-(2,2-difluoro-cyclopropylmethoxy)-nicotinonitrile] had a pIC50 of 9.66. Compound `Cc1nc2nonc2c(N)c1Cc1ccc(C#N)c(=O)[nH]1` [Example 113, 6-(7-Amino-5-methyl-[1,2,5]oxadiazolo[3,4-b]pyridin-6-ylmethyl)-2-oxo-1,2-dihydro-pyridine-3-carbonitrile] showed a pIC50 of 7.51. This pIC50 is 2.15 log units lower than that of the compound before. The result for `Cc1nc2nonc2c(N)c1Cc1ccc(OCC(F)(F)F)c(C#N)n1` [Example 114, 6-(7-Amino-5-methyl-[1,2,5]oxadiazolo[3,4-b]pyridin-6-ylmethyl)-3-(2,2,2-trifluoro-ethoxy)-pyridine-2-carbonitrile] reads 8.41; that for `Cc1nc2nonc2c(N)c1Cc1ccc(OCCF)c(C#N)n1` [Example 115, 6-(7-Amino-5-methyl-[1,2,5]oxadiazolo[3,4-b]pyridin-6-ylmethyl)-3-(2-fluoro-ethoxy)-pyridine-2-carbonitrile], 8.92; that for `Cc1nc2nonc2c(N)c1Cc1ccc(OCC(F)F)c(C#N)n1` [Example 116, 6-(7-Amino-5-methyl-[1,2,5]oxadiazolo[3,4-b]pyridin-6-ylmethyl)-3-(2,2-difluoro-ethoxy)-pyridine-2-carbonitrile], 9.08. For `Cc1nc2nonc2c(N)c1Cc1ccc(Oc2ccnn2C)c(C#N)n1` [Example 117, 6-(7-Amino-5-methyl-[1,2,5]oxadiazolo[3,4-b]pyridin-6-ylmethyl)-3-(2-methyl-2H-pyrazol-3-yloxy)-pyridine-2-carbonitrile], the negative-log IC50 (pIC50) is 9.72. Compound `Cc1nc2nonc2c(N)c1Cc1ccc(Oc2ccccc2)c(C#N)n1` [Example 118, 6-(7-Amino-5-methyl-[1,2,5]oxadiazolo[3,4-b]pyridin-6-ylmethyl)-3-phenoxy-pyridine-2-carbonitrile] showed a pIC50 of 10.07. Regarding `Cc1nc2nonc2c(N)c1Cc1ccc(OC(F)F)c(N)n1` [Example 119, 6-(6-Amino-5-difluoromethoxy-pyridin-2-ylmethyl)-5-methyl-[1,2,5]oxadiazolo[3,4-b]pyridin-7-ylamine], the pIC50 is 10.04. The pIC50 values of the last two compounds are within 0.2 log units of each other. With `Cc1nc2nonc2c(N)c1Cc1ccc(OC(F)F)c(=O)[nH]1` [Example 120, 6-(7-Amino-5-methyl-[1,2,5]oxadiazolo[3,4-b]pyridin-6-ylmethyl)-3-difluoromethoxy-1H-pyridin-2-one] the figure was 8.37; with `Cc1nc2nonc2c(N)c1Cc1ccc(Br)c(NCC2(C)COC2)n1` [Example 121, 6-{5-Bromo-6-[(3-methyl-oxetan-3-ylmethyl)-amino]-pyridin-2-ylmethyl}-5-methyl-[1,2,5]oxadiazolo[3,4-b]pyridin-7-ylamine], 10.35; with `Cc1nc2nonc2c(N)c1Cc1ccc(Br)c(N2CC(C)(O)C2)n1` [Example 122, 1-[6-(7-Amino-5-methyl-[1,2,5]oxadiazolo[3,4-b]pyridin-6-ylmethyl)-3-bromo-pyridin-2-yl]-3-methyl-azetidin-3-ol], 10.48.
